One series has as its system hindquarter blood flow. Briefly: Vasodilatation in vivo: hindquarter blood flow in anaesthetised rats. Set-up: species or system rat (Wistar, male). The conditions noted are these: bolus i.v., 50 μmol/kg, rat. The procedure:
Male Wistar rats (300 g) were anaesthetised with a sodium 5-ethyl-5-(1methylpropyl)-2-thiobarbiturate/sodium pentobarbitone mixture i.p. (62.5 and 22.5 mg/kg respectively). The trachea was cannulated and the rats breathed spontaneously air enriched with O2 (5 ml/min). Blood pressure was recorded from a carotid artery and a jugular vein was cannulated for the administration of compounds. The temperature of the animal was maintained at 37° C. by the use of an electric blanket. […] The perfusion circuit was primed with 5% bovine serum albumin dissolved in 0.9% sodium chloride solution, pH adjusted to 7.4. Initially the pump rate was set between 10 and 15 ml/min to match the hind quarter perfusion pressure to that of the systemic circulation. Once set, the pressure remained unaltered for the rest of the experiment. A change in the speed of the pump (equivalent to hindquarter blood flow) was used to assess the changes in hindquarter vascular resistance.

Series [1] deals with U46619-induced bronchoconstriction. Briefly: Bronchodilatation in vivo: inhibition of U46619-induced bronchoconstriction in anaesthetised guinea-pigs (Konzett-Rossler). More on the design: species or system guinea-pig (Dunkin Hartley, male). The conditions noted are these: for ED50: Cavia porcellus, iv, i.v. bolus, anaesthetised guinea-pig, range for the group of listed Examples, read-out: BD50 (dose of compound required to reduce the U46619-induced bronchoconstriction by 50%). As for the experimental part:
Male guinea-pigs of the Dunkin Hartley strain (500-600g) were anaesthetised with Sagatal (pentobarbital sodium) (60 mg/kg). Airway resistance was measured using a modification of the classical Konzett-Rossler technique (J. Pharm. Methods, 13, 309- 315, 1985). […] The compound under test was administered by i.v. bolus injection, and the subsequent peak inhibition of bronchoconstriction recorded.
The dose of compound required to reduce the U46619-induced bronchoconstriction by 50% is given as the BD50. The compounds of Examples 1, 7, 8, 12, 13, 14, 18, 20, 21, 22 and 24 had BD50 values in the range 0.48-3.85 μmol/kg.

In series [2] the test system is ovalbumen-induced bronchoconstrictor response. Briefly: Anti-allergic activity: ovalbumen-induced bronchoconstriction in sensitised guinea-pigs. It counts as in vivo, guinea-pig (Duncan Hartley, male). The conditions noted are these: ovalbumen 1 mg/kg i.v., n=6. As for the experimental part: Male Duncan Hartley guinea-pigs (250-300 g) were sensitised to ovalbumen by i.p. injection of 2 ml of 50mg.ml^-1 i.p. and 0.2 ml s.c. Three weeks later they were anaesthetised with 60mg.kg^-1 sodium pentabarbitone. The trachea was cannulated and the animal respired at a rate of 40 breaths per minute and at an initial tracheal inflation pressure of 16 mmHg. Tracheal inflation pressure was measured by a transducer connected to a side arm of the respiration circuit. The carotid artery was cannulated for the measurement of blood pressure and the signal was used to trigger an instantaneous rate meter. A jugular vein was cannulated for the administration of drug and allergen. After surgery the animals were allowed to stabilise and the drug was administered i.v. as a bolus. Following this, ovalbumen 1 mg.kg^-1 was injected i.v. as the antigen challenge either 2, 15 or 30 minutes following drug treatment and the peak bronchoconstrictor response recorded. For the control group ovalbumen only was given. One ovalbumen challenge per guinea-pig was used and n=6 for each time point. The percentage increase in tracheal inflation pressure was calculated. The following results indicating an anti-allergic activity were obtained.

Series [3] deals with T1, calmodulin insensitive cyclic GMP phosphodiesterase (Sus scrofa, UniProt A0A287B475).
T1 construct: kept on ice until the pulmonary arteries or aortas could be dissected and excess fat removed; from tissue; host or cells: pig pulmonary arteries or aortas; soluble fraction purified over DEAE-Sepharose, calmodulin-agarose and cibacron blue-agarose
The series is described as follows: Kinetic properties of the isolated PDE activity. It is filed as biochemical, pig. Particulars: at 1 μM substrate. As for the experimental part:
Eight pig hearts/lungs were collected from the abattoir and kept on ice until the pulmonary arteries or aortas could be dissected and excess fat removed. 120 g of tissue was dissected. […] On the day of homogenisation, tissue was cooled with liquid nitrogen and broken into small pieces by striking with a hammer. […] Phenylmethanesulphonylfluoride (PMSF) was added to a final concentration of 50 μM just prior to homogenisation. The homogenate was then centrifuged for 20 minutes at 30,000 g. Supernatant was filtered firstly through glass wool and then a 0.45 μm filter. […] The column was washed with 150 mls of homogenisation buffer and PDE activities eluted with 150 ml of homogenisation buffer containing 100 mM sodium acetate.
Fractions 2 and 3 were pooled and BIS-TRIS, MgCl2, CaCl2 added to final concentrations of 50 mM, 7 mM and 5 mM respectively. PMSF, leupeptin, antipain and pepstatin A were also added at the concentrations described above for these components. The pH of this pooled sample was corrected to 6.9.
The first column in the tandem was a 5 ml calmodulin-agarose column (Sigma) and the second a 1.5 ml cibacron blue 3GA-agarose column (Sigma). Both columns were pre-equilibrated with 50 mM BIS-TRIS, 5 mM MgCl2, 5 mM CaCl2, 5 mM benzamidine, 2 mM dithiothreitol pH 6.9. Following application of the sample the columns were washed with 20 ml of equilibration buffer. […]

Series [4] has as its system [H][C@@]12COP(=O)(O)O[C@@]1([H])[C@@H](O)[C@H](n1cnc3c(=O)[nH]c(N)nc31)O2. Briefly: purified protein, by the assay type. Particulars: other: substrate of the isolated PDE activity.

We go through 14 compounds from patent publication US5162316A, “Pyrimido[4,5-d]pyrimidine derivatives for use as bronchodilators” (Smith Kline & French Laboratories Limited, priority 1988, dated 1992).

Turning to `CCCOc1ccccc1-c1nc2nc(SC)ncc2c(=O)[nH]1` [Example 1, 7-Methylthio-4-oxo-2-(2-propoxyphenyl)-3,4-dihydropyrimido-[4.5-d]pyrimidin], in the series with hindquarter blood flow, the “increase in hindquarter blood flow” value is on record as 43.7%. Also, the ED50 in series [1] fell in the range of 0.48 to 3.85 µmol/kg.
Take `CCCOc1ccccc1-c1nc2nc(N)ncc2c(=O)[nH]1` [Example 7, 7 Amino 4-oxo-2-(2-propoxyphenyl)-3,4-dihydropyrimido[4.5-d]pyrimidine]: the ED50 in series [1] is 0.48 to 3.85 µmol/kg.
For the compound `CCCOc1ccccc1-c1nc2nc(NC)ncc2c(=O)[nH]1` [Example 8, 7-Methylamino-4-oxo-2-(2-propoxyphenyl)-3,4-dihydropyrimido[4.5-d]pyrimidine], the “% Inhibition of Control Bronchoconstrictor Response 30 min after drug administration” value (shortened to “% Inhibition”) in series [2] (dose 6.0 μmol/kg i.v.) is 23%. In addition, in series [1], the ED50 lay within 0.48 to 3.85 µmol/kg.
For `CCCOc1ccccc1-c1nc2nc(NCC)ncc2c(=O)[nH]1` [Example 12, 7-Ethylamino-4-oxo-2-(2-propoxyphenyl)-3,4-dihydropyrimido[4,5-d]pyrimidine], in series [2] (dose 18.7 μmol/kg i.v.), the “% Inhibition” value came to 24%. For the same compound, the ED50 in series [1] fell in the range of 0.48 to 3.85 µmol/kg.
`CCCOc1ccccc1-c1nc2nc(NCCO)ncc2c(=O)[nH]1` [Example 13]: the “% Inhibition” value in series [2] (dose 4.8 μmol/kg i.v.) came to 21%. Also, the ED50 in series [1] lay in the range of 0.48 to 3.85 µmol/kg.
For `CCCOc1ccccc1-c1nc2nc(CC)ncc2c(=O)[nH]1` [Example 14, 7-Ethyl-4-oxo-2-(2-propoxyphenyl)-3,4-dihydropyrimido[4,5-d]pyrimidine], the ED50 in series [1] is 0.48 to 3.85 µmol/kg.
`CCCOc1ccccc1-c1nc2nc(NC3CC3)ncc2c(=O)[nH]1` [Example 18, 7-Cyclopropylamino-4-oxo-2-(2-propoxyphenyl)-3,4-dihydropyrimido[4,5-d]pyrimidine]: the “% Inhibition” value in series [2] (dose 22.6 μmol/kg i.v.) stood at 44%. The ED50 in series [1] fell in the range of 0.48 to 3.85 µmol/kg.
`CCCNc1ncc2c(=O)[nH]c(-c3ccccc3OCCC)nc2n1` [Example 20, 7-Propylamino-4-oxo-2-(2-propoxyphenyl)-3,4-dihydropyrimido[4,5-d]pyrimidine]: the ED50 in series [1] was 0.48 to 3.85 µmol/kg.
The same measure, in the same setting: as for `CCCOc1ccccc1-c1nc2nc(NCCCO)ncc2c(=O)[nH]1` [Example 21, 7-(3-Hydroxypropylamino)-4-oxo-2-(2-propoxyphenyl)-3,4-dihydropyrimido[4.5 d]pyrimidine], the figure is 0.48 to 3.85 µmol/kg; as for `CCCOc1ccccc1-c1nc2nc(NCCOC)ncc2c(=O)[nH]1` [Example 22], 0.48 to 3.85 µmol/kg.
As for `CCCOc1ccccc1-c1nc2nc(NCC(C)O)ncc2c(=O)[nH]1` (centres unmarked) [Example 24, 7-(2-Hydroxypropylamino)-4-oxo-2-(2-propoxyphenyl)-3,4-dihydropyrimido[4,5-d]pyrimidine], in series [2] (dose 6.5 μmol/kg i.v.), the “% Inhibition” value was 24%. Also, in series [1], the ED50 lay within 0.48 to 3.85 µmol/kg.
Turning to `CCCCCC(O)C=CC1C2CC(CO2)C1CC=CCCCC(=O)O` (centres unmarked) [Example U46619, 9,11-methaneoepoxy-PGH2, reference compound], the “increase from basal airway resistance (steady state of bronchoconstriction)” value in series [1] (U46619 infused i.v. at 2.5 nmol/min) is on record as “approximately 120%”.
Take `Nc1nc2c(ncn2[C@@H]2O[C@@H]3COP(=O)(O)O[C@H]3[C@H]2O)c(=O)[nH]1` [cGMP]: the “Ratio of cGMP/cAMP hydrolysis” value in series [3] is on record as 30.
In the case of “calmodulin insensitive cyclic GMP phosphodiesterase (Sus scrofa)”, in series [4], the Km was 1.3 µM.
